Source: patent publication US20250197387A1, “BCL-XL DEGRADERS AND USES THEREOF” (Kymera Therapeutics, Inc., priority 2021, published 2025)

Target: T1, BCL-XL (Homo sapiens, UniProt Q07817)
T1 construct: endogenous in cells; host or cells: MOLT-4
Experiment: BCL-XL degradation assay, western blot in MOLT-4 cells, 16 h
Type: cell-based
Details: western blot, MOLT-4 cells, 16 h; for Dmax: read-out: Bcl-xL WB in MOLT-4 degradation 16 h: Average Dmax %; for DC50: read-out: Bcl-xL WB in MOLT-4 degradation 16 h: Mean external-Abs DC50
Description: Compounds treatment: compounds were reconstituted in DMSO to make a stock concentration of 10 mM. MOLT-4 cells were maintained in RPMI-1640+10% FBS+1% Penicillin-Streptomycin. Cells were seeded into 6-well plates in 2 mL at the seeding density of 2e6 cells/mL. Compounds were added to the cells to a final concentration ranging 0.02-10 μM. After 16 hr incubation at 37° C., in a CO2 incubator, cells were collected in an Eppendorf tube and centrifuged at 200×g for 5 minutes, the supernatant removed and pellets washed with ice-cold PBS, centrifuged and supernatant removed again. Then. 50 μl of pre-chilled RIPA lysis buffer (Boston BioProducts. BP-115D) with protease and phosphatase inhibitors (Roche Applied Science. #04906837001 and #04693116001) was added into cell pellet to lyze the cells for 20 minutes under 4° C. Cell lysates were spin at 13000 rpm for 10 minutes. Supernatants were collected and protein concentration was measured by BCA assay kit (Solarbio. PC0020-500) following the manufacturer's protocol. Samples' final protein concentration was adjusted to 3.75 μg/uL with the RIPA lysis buffer based on BCA assay results and 4× loading buffer (Invitrogen. NP0007) was added into the samples and samples were heated to 85° C., for 10 min and then let cool at RT. Samples were centrifuged at 13000 rpm for 10 min and then loaded into a 26-well NuPAGER. Novex 4-12% Bis-Tris Midi Gel (Invitrogen. WG1403BOX) and run in NuPAGER MOPS SDS Running Buffer (Invitrogen. NP0001) for 180 minutes at 70 V into a XCell4 SureLock™ Midi-Cell Runner (Invitrogen. WR0100). Gel were transferred using the Invitrogen iBlot gel transfer device (Invitrogen. IB21001) and the nitrocellulose transfer stacks (Invitrogen, IB23001) with Program PO for 9 minutes. The membrane was then blocked with 5% bovin serum albumin for 1 hr at RT, then incubated with primary antibodies diluted in blocking buffer (LI-COR. 927-60001) and shake at 4° C., overnight. The primary antibodies were anti-BCL-xL antibody (CST. 2762:1:1000), anti-beta-actin (CST. 3700; 1:5000) and anti-GAPDH (CST. 97166:1:5000). Membranes were then washed three times with PBST for 15 minutes at RT. Secondary antibodies IR-Dye 680 CW Goat anti Mouse IgG (LI-COR. 926-68070) and IR-Dye 800 CW Goat anti Rabbit IgG (LI-COR. 926-32211) were diluted at a ratio of 1:10000 into PBST and membranes incubated for 1 hour at RT. Membranes were then washed three times with PBST for 15 minutes at RT. The western blot images were obtained using Odyssey Imaging System and quantified using Image Studio Lite Ver 5.2 software.
The letter codes for BCL-XL DC50 include: A (<0.01 μM); B (0.01-0.1 μM); C (>[…]); D (>0.5-1.0 μM); and E (>1.0 μM). The letter codes for Dmax % include A (>75%); B (50 to 75%); C (<50%).

T1 sequence (Q07817 whole entry): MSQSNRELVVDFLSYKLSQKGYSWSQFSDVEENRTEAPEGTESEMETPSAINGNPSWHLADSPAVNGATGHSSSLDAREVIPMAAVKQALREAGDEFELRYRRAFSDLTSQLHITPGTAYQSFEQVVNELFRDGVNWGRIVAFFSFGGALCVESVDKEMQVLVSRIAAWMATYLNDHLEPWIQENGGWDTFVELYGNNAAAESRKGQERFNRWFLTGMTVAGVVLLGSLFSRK

Dmax [%]	DC50 [nM]	SMILES
> 75	10 to 100	Cc1ncsc1-c1ccc(CNC(=O)[C@@H]2C[C@@H](O)CN2C(=O)C(c2cc(OCCCCCCCCC(=O)N(C)CC#Cc3ccc(OCCCc4sc(N5CCc6cccc(C(=O)Nc7nc8ccccc8s7)c6C5)nc4C(=O)O)c(F)c3)no2)C(C)C)cc1 (stereo partly drawn) [I-88]
< 50	> 1000	Cc1ncsc1-c1ccc(CNC(=O)[C@@H]2C[C@@H](O)CN2C(=O)[C@@H](NC(=O)C2(F)CC2)C(C)(C)C)c(O[C@H]2CC[C@H](C(=O)N3CCN(CC[C@H](CSc4ccccc4)Nc4ccc(S(=O)(=O)NC(=O)c5ccc(N6CCN(CC7=C(c8ccc(Cl)cc8)CCC(C)(C)C7)CC6)cc5)cc4S(=O)(=O)C(F)(F)F)CC3)CC2)c1 [I-89]
< 50	> 1000	Cc1ncsc1-c1ccc(CNC(=O)[C@@H]2C[C@@H](O)CN2C(=O)[C@@H](NC(=O)C2(F)CC2)C(C)(C)C)c(O[C@H]2CC[C@@H](C(=O)N3CCN(CC[C@H](CSc4ccccc4)Nc4ccc(S(=O)(=O)NC(=O)c5ccc(N6CCN(CC7=C(c8ccc(Cl)cc8)CCC(C)(C)C7)CC6)cc5)cc4S(=O)(=O)C(F)(F)F)CC3)CC2)c1 [I-90]
< 50	> 1000	Cc1ncsc1-c1ccc(CNC(=O)[C@@H]2C[C@@H](O)CN2C(=O)[C@@H](NC(=O)C2(F)CC2)C(C)(C)C)c(O[C@H]2C[C@H](C(=O)N3CCN(CC[C@H](CSc4ccccc4)Nc4ccc(S(=O)(=O)NC(=O)c5ccc(N6CCN(CC7=C(c8ccc(Cl)cc8)CCC(C)(C)C7)CC6)cc5)cc4S(=O)(=O)C(F)(F)F)CC3)C2)c1 [I-91]
> 75	100 to 500	C#Cc1ccc(CNC(=O)[C@@H]2C[C@@H](O)CN2C(=O)[C@@H](NC(=O)C2(F)CC2)C(C)(C)C)c(OCC(=O)N2CCN(CC[C@H](CSc3ccccc3)Nc3ccc(S(=O)(=O)NC(=O)c4ccc(N5CCN(CC6=C(c7ccc(Cl)cc7)CCC(C)(C)C6)CC5)cc4)cc3S(=O)(=O)C(F)(F)F)CC2)c1 [I-92]
50 to 75	> 1000	Cc1ncsc1-c1ccc([C@H](C)NC(=O)[C@@H]2C[C@@H](O)CN2C(=O)[C@@H](NC(=O)CCCCCC(=O)N2CCN(CC#Cc3ccc(OCCCc4sc(N5CCc6cccc(C(=O)Nc7nc8ccccc8s7)c6C5)nc4C(=O)O)cc3)CC2)C(C)(C)C)cc1 [I-93]
< 50	> 1000	CC1(C)CCC(c2ccc(Cl)cc2)=C(CN2CCN(c3ccc(C(=O)NS(=O)(=O)c4ccc(N[C@H](CCN5CCN(C(=O)COc6ccccc6CNC(=O)[C@@H]6C[C@@H](O)CN6C(=O)[C@@H](NC(=O)C6(F)CC6)C(C)(C)C)CC5)CSc5ccccc5)c(S(=O)(=O)C(F)(F)F)c4)cc3)CC2)C1 [I-97]
< 50	> 1000	CC1(C)CCC(c2ccc(Cl)cc2)=C(CN2CCN(c3ccc(C(=O)NS(=O)(=O)c4ccc(N[C@H](CCN5CCN(C(=O)COc6cc(F)ccc6CNC(=O)[C@@H]6C[C@@H](O)CN6C(=O)[C@@H](NC(=O)C6(F)CC6)C(C)(C)C)CC5)CSc5ccccc5)c(S(=O)(=O)C(F)(F)F)c4)cc3)CC2)C1 [I-98]
50 to 75	> 1000	Cc1cc(N(CCN(C)C(=O)CCCC(=O)N[C@H](C(=O)N2C[C@H](O)C[C@H]2C(=O)N[C@@H](C)c2ccc(-c3scnc3C)cc2)C(C)(C)C)c2ccc(-c3cnn(CC4CCCCC4)c3C)c(C(=O)O)n2)nnc1Nc1nc2ccccc2s1 [I-99]
50 to 75	100 to 500	Cc1cc(N(CCN(C)C(=O)CCCCCC(=O)N[C@H](C(=O)N2C[C@H](O)C[C@H]2C(=O)N[C@@H](C)c2ccc(-c3scnc3C)cc2)C(C)(C)C)c2ccc(-c3cnn(CC4CCCCC4)c3C)c(C(=O)O)n2)nnc1Nc1nc2ccccc2s1 [I-100]
< 50	> 1000	Cc1cc(N(CCN(C)C(=O)CCCCCCCCC(=O)N[C@H](C(=O)N2C[C@H](O)C[C@H]2C(=O)N[C@@H](C)c2ccc(-c3scnc3C)cc2)C(C)(C)C)c2ccc(-c3cnn(CC4CCCCC4)c3C)c(C(=O)O)n2)nnc1Nc1nc2ccccc2s1 [I-101]
50 to 75	> 1000	Cc1cc(N(CCN(C)C(=O)CCCOc2cc(-c3scnc3C)ccc2CNC(=O)[C@@H]2C[C@@H](O)CN2C(=O)[C@@H](NC(=O)C2(F)CC2)C(C)(C)C)c2ccc(-c3cnn(CC4CCCCC4)c3C)c(C(=O)O)n2)nnc1Nc1nc2ccccc2s1 [I-102]
< 50	> 1000	Cc1cc(N(CCN(C)C(=O)CCCCCOc2cc(-c3scnc3C)ccc2CNC(=O)[C@@H]2C[C@@H](O)CN2C(=O)[C@@H](NC(=O)C2(F)CC2)C(C)(C)C)c2ccc(-c3cnn(CC4CCCCC4)c3C)c(C(=O)O)n2)nnc1Nc1nc2ccccc2s1 [I-103]
< 50	> 1000	Cc1cc(N(CCN(C)C(=O)CCCCCCCCOc2cc(-c3scnc3C)ccc2CNC(=O)[C@@H]2C[C@@H](O)CN2C(=O)[C@@H](NC(=O)C2(F)CC2)C(C)(C)C)c2ccc(-c3cnn(CC4CCCCC4)c3C)c(C(=O)O)n2)nnc1Nc1nc2ccccc2s1 [I-104]
< 50	> 1000	Cc1ncsc1-c1ccc([C@H](C)NC(=O)[C@@H]2C[C@@H](O)CN2C(=O)[C@@H](NC(=O)CCCCCS(=O)(=O)NC(=O)c2ccc(N3CCN(CC4=C(c5ccc(Cl)cc5)CCC(C)(C)C4)CC3)cc2)C(C)(C)C)cc1 [I-106]
50 to 75	> 1000	Cc1ncsc1-c1ccc([C@H](C)NC(=O)[C@@H]2C[C@@H](O)CN2C(=O)[C@@H](NC(=O)CCCCCCCS(=O)(=O)NC(=O)c2ccc(N3CCN(CC4=C(c5ccc(Cl)cc5)CCC(C)(C)C4)CC3)cc2)C(C)(C)C)cc1 [I-107]
< 50	> 1000	Cc1ncsc1-c1ccc(CNC(=O)[C@@H]2C[C@@H](O)CN2C(=O)[C@@H](NC(=O)CCCC(=O)N(C)CCN(C)c2cc3c(c(C(=O)Nc4nc5ccccc5s4)c2)CN(c2ccc(-c4cnn(CC5CCCCC5)c4C)c(C(=O)O)n2)CC3)C(C)(C)C)cc1 [I-109]
< 50	> 1000	Cc1ncsc1-c1ccc([C@H](C)NC(=O)[C@@H]2C[C@@H](O)CN2C(=O)[C@@H](NC(=O)CCCC(=O)N(C)CCN(C)c2cc3c(c(C(=O)Nc4nc5ccccc5s4)c2)CN(c2ccc(-c4cnn(CC5CCCCC5)c4C)c(C(=O)O)n2)CC3)C(C)(C)C)cc1 [I-110]
50 to 75	500 to 1000	Cc1ncsc1-c1ccc([C@H](C)NC(=O)[C@@H]2C[C@@H](O)CN2C(=O)[C@@H](NC(=O)C2(F)CC2)C(C)(C)C)c(OCC(=O)N2CCN(CC[C@H](CSc3ccccc3)Nc3ccc(S(=O)(=O)NC(=O)c4ccc(N5CCN(CC6=C(c7ccc(Cl)cc7)CCC(C)(C)C6)CC5)cc4)cc3S(=O)(=O)C(F)(F)F)CC2)c1 [I-112]
< 50	> 1000	Cc1cc(N(CCCC(=O)N[C@H](C(=O)N2C[C@H](O)C[C@H]2C(=O)N[C@@H](C)c2ccc(-c3scnc3C)cc2)C(C)(C)C)c2ccc(-c3cnn(CC4CCCCC4)c3C)c(C(=O)O)n2)nnc1Nc1nc2ccccc2s1 [I-113]
> 75	< 10	Cc1ncsc1-c1ccc([C@H](C)NC(=O)[C@@H]2C[C@@H](O)CN2C(=O)[C@@H](NC(=O)CCCS(=O)(=O)NC(=O)c2nc(N3CCc4cccc(C(=O)Nc5nc6ccccc6s5)c4C3)ccc2-c2cnn(CC34CC5CC(CC(C5)C3)C4)c2C)C(C)(C)C)cc1 [I-117]
< 50	> 1000	Cc1ncsc1-c1ccc([C@H](C)NC(=O)[C@@H]2C[C@@H](O)CN2C(=O)[C@@H](NC(=O)CCCCCS(=O)(=O)NC(=O)c2cccc(N3CCc4cccc(C(=O)Nc5nc6ccccc6s5)c4C3)n2)C(C)(C)C)cc1 [I-119]
< 50	> 1000	Cc1ncsc1-c1ccc([C@H](C)NC(=O)[C@@H]2C[C@@H](O)CN2C(=O)[C@@H](NC(=O)CCc2ccc(S(=O)(=O)NC(=O)c3ccc(N4CCN(CC5=C(c6ccc(Cl)cc6)CCC(C)(C)C5)CC4)cc3)cc2)C(C)(C)C)cc1 [I-124]
< 50	> 1000	Cc1ncsc1-c1ccc([C@H](C)NC(=O)[C@@H]2C[C@@H](O)CN2C(=O)[C@@H](NC(=O)N2CC3(CCC(C(=O)N4CCN(CC[C@H](CSc5ccccc5)Nc5ccc(S(=O)(=O)NC(=O)c6ccc(N7CCN(CC8=C(c9ccc(Cl)cc9)CCC(C)(C)C8)CC7)cc6)cc5S(=O)(=O)C(F)(F)F)CC4)CC3)C2)C(C)(C)C)cc1 [I-125]
